Assay results published in patent US20080318999A1, “Tricyclic Benzimidazoles and Their Use as Metabotropic Glutamate Receptor Modulators” (priority 2005, published 2008).

Target: T1, human mGluR2 (Homo sapiens, UniProt Q14416)
T1 construct: If the GTPgammaS assay gave them: nothing
Assay: mGluR2 allosteric activator assays described herein (FLIPR calcium mobilization in HEK 293 mGluR2/CaR cells; [35S]-GTPγS binding with CHO membranes)
Type: cell-based
Details: potentiator / positive allosteric modulator activity at mGluR2; the patent does not say which of the two described assays (FLIPR or GTPγS)
Source text: The pharmacological properties of the compounds of the invention can be analyzed using standard assays for functional activity. Examples of glutamate receptor assays are well known in the art as described in, for example, Aramori et al., 1992, Neuron, 8:757; Tanabe et al., 1992, Neuron, 8:169; Miller et al., 1995, J. Neuroscience, 15:6103; Balazs, et al., 1997, J. Neurochemistry, 1997, 69:151. The methodology described in these publications is incorporated herein by reference. Conveniently, the compounds of the invention can be studied by means of an assay that measures the mobilization of intracellular calcium, [Ca^2+]i in cells expressing mGluR2.
Fluorometric Imaging Plate Reader (FLIPR) analysis was used to detect allosteric activators of mGluR2 via calcium mobilization. […]
FLIPR experiments were done using a laser setting of 0.8 W and a 0.4 second CCD camera shutter speed. […] An addition of test compound (0.01 μM to 30 μM in duplicate) was made after 10 seconds of baseline fluorescent readings were recorded on FLIPR. Fluorescent signals were then recorded for an additional 75 seconds at which point a second addition of DCG-IV (0.2 μM) was made and fluorescent signals were recorded for an additional 65 seconds. Fluorescent signals were measured as the peak height of the response within the sample period. […]

T1 sequence (Q14416 19-819 limits assumed): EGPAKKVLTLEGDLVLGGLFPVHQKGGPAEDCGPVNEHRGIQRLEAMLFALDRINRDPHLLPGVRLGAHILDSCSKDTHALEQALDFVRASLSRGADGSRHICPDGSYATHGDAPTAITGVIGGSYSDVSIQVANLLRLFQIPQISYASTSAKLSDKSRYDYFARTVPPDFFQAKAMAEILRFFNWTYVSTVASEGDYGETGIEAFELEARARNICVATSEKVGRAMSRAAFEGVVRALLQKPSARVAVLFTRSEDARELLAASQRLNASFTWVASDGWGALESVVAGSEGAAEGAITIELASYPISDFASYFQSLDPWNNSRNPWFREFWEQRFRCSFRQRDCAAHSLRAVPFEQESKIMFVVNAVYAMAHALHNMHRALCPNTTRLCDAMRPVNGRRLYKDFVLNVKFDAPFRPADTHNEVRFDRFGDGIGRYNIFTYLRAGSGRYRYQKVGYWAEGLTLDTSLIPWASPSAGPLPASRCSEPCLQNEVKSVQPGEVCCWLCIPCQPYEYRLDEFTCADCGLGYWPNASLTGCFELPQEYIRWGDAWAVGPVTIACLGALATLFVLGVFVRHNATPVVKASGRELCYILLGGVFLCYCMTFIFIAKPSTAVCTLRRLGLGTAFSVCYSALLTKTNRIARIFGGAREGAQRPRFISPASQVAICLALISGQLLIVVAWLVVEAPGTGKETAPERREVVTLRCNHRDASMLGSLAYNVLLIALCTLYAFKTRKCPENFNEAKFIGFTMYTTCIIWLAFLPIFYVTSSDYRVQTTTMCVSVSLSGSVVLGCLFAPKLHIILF

**Q.** `O=C1CCn2c(CN3CCC(c4ccc(F)cc4)CC3)nc3cc(F)cc1c32` [Example 28.1, 8-Fluoro-2-[4-(4-fluoro-phenyl)-piperidin-1-ylmethyl]-4,5,9a,9b-tetrahydroimidazo[4,5,1-ij]quinolin-6-one] was tested. Which EC50 did it give?
**A.** 1110 nM
